US11273152B2, “TRPV2 antagonists” (Instituto de Medicina Molecular João Lobo Antunes, priority 2017, dated 2022)

Assays:
[1] = target: T1, TRPV2 (Homo sapiens, UniProt Q9Y5S1); assay: Manual patch-clamp assay, hTRPV2 stable HEK-293 cells; format: cell-based; conditions: n=3
T1 sequence (Q9Y5S1 1-764): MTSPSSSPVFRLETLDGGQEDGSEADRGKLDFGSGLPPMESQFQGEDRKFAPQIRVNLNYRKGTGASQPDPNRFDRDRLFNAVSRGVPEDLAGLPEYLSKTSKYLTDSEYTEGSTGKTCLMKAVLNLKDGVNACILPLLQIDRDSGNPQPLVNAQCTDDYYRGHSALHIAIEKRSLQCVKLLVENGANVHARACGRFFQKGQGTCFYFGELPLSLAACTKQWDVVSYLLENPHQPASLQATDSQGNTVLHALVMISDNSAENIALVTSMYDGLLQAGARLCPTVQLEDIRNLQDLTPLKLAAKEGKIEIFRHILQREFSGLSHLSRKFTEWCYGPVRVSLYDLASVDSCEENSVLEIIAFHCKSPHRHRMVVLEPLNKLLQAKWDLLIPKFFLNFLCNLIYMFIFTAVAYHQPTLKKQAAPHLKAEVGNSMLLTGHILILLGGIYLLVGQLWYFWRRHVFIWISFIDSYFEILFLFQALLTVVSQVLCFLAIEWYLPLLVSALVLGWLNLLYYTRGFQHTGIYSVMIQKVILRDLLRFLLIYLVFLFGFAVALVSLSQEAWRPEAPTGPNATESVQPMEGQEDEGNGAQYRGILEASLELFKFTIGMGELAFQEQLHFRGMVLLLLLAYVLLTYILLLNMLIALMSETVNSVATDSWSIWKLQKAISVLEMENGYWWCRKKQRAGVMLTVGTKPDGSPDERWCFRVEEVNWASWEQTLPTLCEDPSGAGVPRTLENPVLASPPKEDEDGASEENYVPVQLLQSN
Description: The assays were performed at SB Discovery (Glasgow, UK) on a fee-for-service basis. Concentration-response curves and washout assays were performed using a manual patch clamp method. HEK-293 cells were grown and prepared, according to the adapted procedure for hTRPV2 stable cell lines at SB Discovery. Cells were serum starved for approximately 24 hours and then changed to serum-containing media prior to electrophysiology testing. The manual patch-clamp assay was carried out at room temperature using a traditional electrophysiological unit. Cells were used within 2-3 hours after addition of serum containing media to the cells. The standard extracellular solution contained 145 mM NaCl, 4 mM KCl, 2 mM CaCl2, 1 mM MgCl2, 10 mM HEPES and 10 mM glucose. The pH was adjusted to 7.4 with NaOH, and the osmolarity was measured as 311 mOsm/L. The standard intracellular solution contained 50 mM KCl, 10 mM NaCl, 60 mM KF, 2 mM MgCl2, 20 mM EGTA and 10 mM HEPES. The pH was adjusted to 7.2 with KOH and the osmolarity was measured as 286 mOsm/L. A standard ramp protocol was used to monitor currents upon addition of control (extracellular solution) and compound solutions. The voltage protocol consisted of a series of voltage ramps from −100 mV to +100 mV, every 5 seconds, from a holding potential of −60 mV. The maximum outward current values during the recordings at +100 mV were used for analysis. Manual patch clamp experiments were carried out using an Axon 200B amplifier and a Digidata 1440A acquisition system from Axon Instruments (Molecular Devices, USA). The software program pClamp (version 10) from Axon Instruments was used to stimulate and record electrical activity. Capacitative transients were compensated electronically from the recordings, however the voltage drop across the series resistance and the liquid junction potential were not compensated. The series resistance was generally less than 10 MΩ, with a mean cell capacity of approximately 25 pF. The GraphPad Prism (version 5) software was used to analyze and plot all graphs. The agonist (cannabidiol; Abcam #ab120448) was prepared as 100 mM stock in 100% DMSO and diluted to 4 μM or 10 μM in physiological solution prior to testing. Piperlongumine was prepared as 100 mM stock in 100% DMSO and diluted to the specified concentrations in physiological solution (100, 50, 10, 1 and 0.1 μM), also containing 4 μM or 10 μM cannabidiol. Ruthenium red (Sigma, #R2751) was prepared daily as 10 mM stock ion distilled water and diluted to 100 μM in physiological solution.

[2] = target: T1, TRPV2; assay: Fluorescence cell-based assay, TRPV2 (cannabidiol-evoked calcium influx); conditions: spread in log units; n=2; read-out: IC50 against TRPV2, fluorescence-based assay (FIG. 2a)
Description: (§1) The assays were performed at SB Discovery (Glasgow, UK) on a fee-for-service basis. Human TRP cells were trypsinised, counted and seeded in black, clear-bottomed 96 well plates at a density of 50,000 cells per well in 100 μL volume and incubated overnight. Next day, the cells were loaded with calcium 5 dye or membrane potential dye. TRPV1-5, TRPA1, TRPM2, TRPM3, and TRPM8 were tested using the calcium 5 dye. TRPC1, TRPC3-7, and TRPM4-5 were tested using the membrane potential dye. Both dye solutions were made up in HEPES buffered Hank's balanced salt solution (HBSS). Dye solution (90 μL) was added to the wells and incubated at 37° C. for 1 hour. Test compounds and standard inhibitors (10 μL) were then added to the wells and incubated at room temperature for 10 minutes. The plates were then placed in the flexstation and fluorescence monitored every 1.52 seconds. After 20 seconds agonist was added and the fluorescence monitored for 2 minutes at 485 nm/525 nm and 530 nm/565 nm, Ex/Em, for the calcium 5 dye and the membrane potential dye respectively. Controls-TRPV1: capsazepine; TRPV2: tranilast; TRPV3: ruthenium red; TRPV4: ruthenium red; TRPV5: Gd^3+; TRPA1, ruthenium red; TRPC1: Gd^3+; TRPC3: Pyr3; TRPC4: ML 204; TRPC5: ML 204; TRPC6: ML 204; TRPC7: SKF 96365; TRPM2: 2-APB; TRPM3: Mef acid; TRPM4: clotrimazole; TRPM5: TPPO; TRPM8: 2-APB. Control data was in all cases within historical range.

[3] = target: TRPC7 (Homo sapiens, UniProt Q9HCX4); assay: Fluorescence cell-based assay, TRPC7; conditions: membrane potential dye, spread in log units, duplicate
TRPC7, sequence (Q9HCX4 whole entry): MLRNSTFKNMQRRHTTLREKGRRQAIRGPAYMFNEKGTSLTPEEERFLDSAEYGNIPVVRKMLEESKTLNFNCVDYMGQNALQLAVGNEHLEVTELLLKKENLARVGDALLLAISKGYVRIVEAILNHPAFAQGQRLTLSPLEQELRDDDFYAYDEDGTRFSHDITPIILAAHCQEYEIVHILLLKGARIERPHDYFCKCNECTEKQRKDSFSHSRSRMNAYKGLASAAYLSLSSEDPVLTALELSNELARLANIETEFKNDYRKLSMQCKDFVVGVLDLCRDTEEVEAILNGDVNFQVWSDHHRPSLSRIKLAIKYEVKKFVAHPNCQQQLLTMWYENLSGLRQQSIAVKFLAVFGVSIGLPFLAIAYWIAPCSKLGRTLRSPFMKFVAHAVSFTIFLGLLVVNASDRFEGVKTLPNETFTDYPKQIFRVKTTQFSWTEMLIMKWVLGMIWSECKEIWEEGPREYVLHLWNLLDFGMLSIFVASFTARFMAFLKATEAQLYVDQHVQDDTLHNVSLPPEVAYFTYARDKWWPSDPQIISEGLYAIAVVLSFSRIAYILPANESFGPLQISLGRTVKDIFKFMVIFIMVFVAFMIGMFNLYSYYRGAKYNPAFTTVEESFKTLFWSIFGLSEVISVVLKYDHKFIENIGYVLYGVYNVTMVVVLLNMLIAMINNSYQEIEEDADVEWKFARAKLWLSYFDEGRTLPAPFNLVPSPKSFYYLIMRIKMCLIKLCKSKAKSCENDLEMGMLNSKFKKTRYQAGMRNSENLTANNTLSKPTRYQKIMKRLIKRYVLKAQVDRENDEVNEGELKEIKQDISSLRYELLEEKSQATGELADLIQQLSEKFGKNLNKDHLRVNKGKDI
Description: as §1, with “Control data was in all cases within historical range.” left out

[4] = target: TRPA1 (Homo sapiens, UniProt O75762); assay: Fluorescence cell-based assay, TRPA1; conditions: calcium 5 dye, spread in log units, duplicate
TRPA1, sequence (O75762 whole entry): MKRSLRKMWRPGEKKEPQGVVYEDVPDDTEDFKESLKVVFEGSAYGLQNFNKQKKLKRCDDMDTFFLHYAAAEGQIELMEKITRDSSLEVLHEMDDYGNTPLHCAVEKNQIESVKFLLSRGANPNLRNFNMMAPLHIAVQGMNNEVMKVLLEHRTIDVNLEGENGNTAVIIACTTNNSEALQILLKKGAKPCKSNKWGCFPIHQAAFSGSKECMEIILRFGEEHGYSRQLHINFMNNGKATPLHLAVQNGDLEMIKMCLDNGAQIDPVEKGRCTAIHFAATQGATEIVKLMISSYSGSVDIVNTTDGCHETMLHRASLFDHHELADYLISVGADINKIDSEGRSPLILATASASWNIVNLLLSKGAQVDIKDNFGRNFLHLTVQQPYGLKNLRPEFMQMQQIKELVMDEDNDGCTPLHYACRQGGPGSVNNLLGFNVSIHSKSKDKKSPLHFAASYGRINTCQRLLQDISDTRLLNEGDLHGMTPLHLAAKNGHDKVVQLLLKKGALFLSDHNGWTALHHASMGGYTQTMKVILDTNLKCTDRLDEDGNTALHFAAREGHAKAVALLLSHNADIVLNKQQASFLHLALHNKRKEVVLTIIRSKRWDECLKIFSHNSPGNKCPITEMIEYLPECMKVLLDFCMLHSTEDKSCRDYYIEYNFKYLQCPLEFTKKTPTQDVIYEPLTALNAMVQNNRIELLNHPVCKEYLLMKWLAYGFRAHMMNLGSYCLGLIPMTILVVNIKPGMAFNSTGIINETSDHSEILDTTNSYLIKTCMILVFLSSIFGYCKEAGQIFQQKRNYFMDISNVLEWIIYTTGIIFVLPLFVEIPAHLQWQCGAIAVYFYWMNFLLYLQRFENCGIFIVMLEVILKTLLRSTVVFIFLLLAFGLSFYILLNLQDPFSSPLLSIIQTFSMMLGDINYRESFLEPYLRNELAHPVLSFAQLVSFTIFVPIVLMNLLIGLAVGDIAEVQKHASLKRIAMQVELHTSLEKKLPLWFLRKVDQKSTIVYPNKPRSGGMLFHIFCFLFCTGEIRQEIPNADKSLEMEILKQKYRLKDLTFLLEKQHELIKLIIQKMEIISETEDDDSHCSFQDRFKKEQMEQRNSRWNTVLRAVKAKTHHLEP
Description: as §1, with “Control data was in all cases within historical range.” left out

With `C=C(C)[C@@H]1CCC(C)=C[C@H]1c1c(O)cc(CCCCC)cc1O` [cannabidiol, reference compound] the “nHill (cannabidiol), TRPV2” value [1] was 0.6 and the EC50 ([1]; read-out: EC50 (cannabidiol), TRPV2) was 3.8 µM.

`COc1ccc(/C=C/C(=O)Nc2ccccc2C(=O)O)cc1OC` [tranilast, reference compound] was tested, and the IC50 [2] was 2.3 ± 0.25 µM.

With `COc1ccc(CCCOC(Cn2ccnc2)c2ccc(OC)cc2)cc1` (centres unmarked) [SKF 96365, reference compound] the IC50 [3] was 103 µM.

`Cl.Cl.Cl.Cl.Cl.Cl.N.N.N.N.N.N.N.N.N.N.N.N.N.N.[O-2].[O-2].[Ru+3].[Ru+3].[Ru+4]` [ruthenium red, reference compound] showed an IC50 [4] of 2.3 µM.
